Reference: patent US10829473B2, “Modulators of the cystic fibrosis transmembrane conductance regulator protein and methods of use” (AbbVie Overseas S.Á.R.L., priority 2017, dated 2020)
Where two headings read alike, the source gives them in different places. Marks after values point to notes of the source that are not given here.

Biological target: T1, F508delCFTR (Homo sapiens, UniProt P13569, DEL508-508)
T1 construct: expressed in transfected cells; host or cells: CFBE41o- human lung derived epithelial cells (CFBE41o-F508delCFTR-HRP), doxycycline-inducible
T1 sequence (P13569 with tags, fused parts or gaps DEL508-508): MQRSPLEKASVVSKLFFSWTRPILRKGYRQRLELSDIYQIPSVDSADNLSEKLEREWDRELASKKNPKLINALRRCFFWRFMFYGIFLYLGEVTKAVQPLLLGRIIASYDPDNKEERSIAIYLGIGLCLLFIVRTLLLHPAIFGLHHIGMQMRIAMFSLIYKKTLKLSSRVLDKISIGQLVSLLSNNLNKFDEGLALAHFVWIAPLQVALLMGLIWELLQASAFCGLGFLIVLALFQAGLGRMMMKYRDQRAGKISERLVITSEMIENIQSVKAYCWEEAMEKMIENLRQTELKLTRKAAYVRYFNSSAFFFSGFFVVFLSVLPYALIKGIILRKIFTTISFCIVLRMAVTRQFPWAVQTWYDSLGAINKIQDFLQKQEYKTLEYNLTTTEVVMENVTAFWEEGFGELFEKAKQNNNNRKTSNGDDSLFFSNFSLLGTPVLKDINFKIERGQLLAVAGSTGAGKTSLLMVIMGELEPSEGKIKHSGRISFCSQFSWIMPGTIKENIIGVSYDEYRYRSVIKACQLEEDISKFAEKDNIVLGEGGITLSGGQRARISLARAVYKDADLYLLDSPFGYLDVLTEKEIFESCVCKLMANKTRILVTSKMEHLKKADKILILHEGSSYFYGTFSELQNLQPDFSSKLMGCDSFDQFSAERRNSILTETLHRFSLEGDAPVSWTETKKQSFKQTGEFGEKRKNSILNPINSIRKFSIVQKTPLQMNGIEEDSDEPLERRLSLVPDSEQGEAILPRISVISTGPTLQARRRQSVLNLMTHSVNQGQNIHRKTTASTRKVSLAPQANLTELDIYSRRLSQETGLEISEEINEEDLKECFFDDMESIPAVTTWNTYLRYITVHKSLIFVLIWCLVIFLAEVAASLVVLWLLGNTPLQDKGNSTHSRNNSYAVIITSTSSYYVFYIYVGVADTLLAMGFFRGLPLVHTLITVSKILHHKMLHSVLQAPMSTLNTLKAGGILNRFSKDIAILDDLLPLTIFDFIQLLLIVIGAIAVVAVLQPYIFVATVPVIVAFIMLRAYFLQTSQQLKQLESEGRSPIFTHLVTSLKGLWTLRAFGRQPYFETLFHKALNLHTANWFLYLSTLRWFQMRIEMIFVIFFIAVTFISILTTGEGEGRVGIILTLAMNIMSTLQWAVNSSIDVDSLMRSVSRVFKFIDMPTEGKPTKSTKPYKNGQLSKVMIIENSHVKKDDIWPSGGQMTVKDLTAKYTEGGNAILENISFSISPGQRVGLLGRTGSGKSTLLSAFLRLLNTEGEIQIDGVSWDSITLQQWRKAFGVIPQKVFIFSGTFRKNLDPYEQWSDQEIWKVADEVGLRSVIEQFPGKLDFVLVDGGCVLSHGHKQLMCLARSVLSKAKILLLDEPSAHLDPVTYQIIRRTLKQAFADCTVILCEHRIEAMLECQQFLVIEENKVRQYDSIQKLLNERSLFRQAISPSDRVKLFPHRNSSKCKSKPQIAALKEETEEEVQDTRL
Assay: Cell Surface Expression-Horse Radish Peroxidase (CSE-HRP) Assay;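 as to EC50 (with co-corrector): co-corrector chromenyl benzoic acid corrector at 2 or 3 µM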;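 as to Maximum % activity (without co-corrector): % of on-plate positive control chromenyl benzoic acid corrector at 2 or 3 µM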
Format: cell-based
Conditions: for Maximum % activity (with co-corrector) / Emax: maximum at any tested concentration; for Emax: read-out: Maximum % activity (without co-corrector)
Outline: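 Corrector compounds were given as 8-point 3-fold series from 20 or 30 μM, with or without a 2 μM co-corrector, for 18-24 h at 33 °C. Surface HRP was read by luminol luminescence as % of positive control; variable-Hill-slope sigmoidal fitting gave EC50 from triplicate plates.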

[1] = test compound alone, without co-corrector, read-out: EC50 (without co-corrector)
[2] = with co-corrector, read-out: EC50 (with co-corrector)
[3] = test compound with co-corrector
[4] = test compound with co-corrector, read-out: EC50 (with co-corrector)
[5] = test compound without co-corrector
[6] = test compound without co-corrector, read-out: EC50 (without co-corrector)

COc1ccc(C2CCC2)cc1C1(C(=O)NS(=O)(=O)c2cccc3nc(C)ccc23)CCC1 [Example I-33, 1-(5-cyclobutyl-2-methoxyphenyl)-N-(2-methylquinoline-5-sulfonyl)cyclobutane-1-carboxamide]
EC50 [1]: 3 to 10 µM
Maximum % activity (with co-corrector) (with co-corrector): +++ (≥350)
EC50 [2]: < 3 µM
Emax (without co-corrector): > 150%

CCOc1ccc(C)cc1C1(C(=O)NS(=O)(=O)c2cccc3nc(N(C)C)ccc23)CC1 [Example III-134, N-[2-(dimethylamino)quinoline-5-sulfonyl]-1-(2-ethoxy-5-methylphenyl)cyclopropane-1-carboxamide]
EC50 [1]: < 3 µM
Maximum % activity (with co-corrector) (with co-corrector): +++ (≥350)
EC50 [2]: < 3 µM
Emax (without co-corrector): > 150%

Cc1ccc2c(S(=O)(=O)NC(=O)C3(c4cc(C5CC5)cnc4OC(C)C)CC3)cccc2n1 [Example GI-60, 1-{5-cyclopropyl-2-[(propan-2-yl)oxy]pyridin-3-yl}-N-(2-methylquinoline-5-sulfonyl)cyclopropane-1-carboxamide]
Maximum % activity (with co-corrector) [3]: +++ (≥350)
EC50 [4]: < 3 µM
Emax [5]: > 150%
EC50 [6]: < 3 µM

COc1ccc(C)nc1C1(C(=O)NS(=O)(=O)c2cccc3ccccc23)CC1 [Example III-125, 1-(3-methoxy-6-methylpyridin-2-yl)-N-(naphthalene-1-sulfonyl)cyclopropane-1-carboxamide]
EC50 [1]: 3 to 10 µM
Maximum % activity (with co-corrector) (with co-corrector): +++ (≥350)
EC50 [2]: 3 to 10 µM
Emax (without co-corrector): > 150%

Cc1ccc2c(S(=O)(=O)NC(=O)C3(c4cc(N(C)C)cnc4OCC(C)C)CC3)cccc2n1 [Example I-109, 1-[5-(dimethylamino)-2-(2-methylpropoxy)pyridin-3-yl]-N-(2-methylquinoline-5-sulfonyl)cyclopropane-1-carboxamide]
EC50 [1]: < 3 µM
Maximum % activity (with co-corrector) (with co-corrector): +++ (≥350)
EC50 [2]: < 3 µM
Emax (without co-corrector): > 150%

Cc1ccccc1S(=O)(=O)NC(=O)C1(c2ccc(Cl)cc2Cl)CC1 [Example III-87, 1-(2,4-dichlorophenyl)-N-(2-methylbenzene-1-sulfonyl)cyclopropane-1-carboxamide]
EC50 [1]: 3 to 10 µM
Maximum % activity (with co-corrector) (with co-corrector): +++ (≥350)
EC50 [2]: 3 to 10 µM
Emax (without co-corrector): 50 to 150%

COCC1(c2ccc(OC)c(C3(C(=O)NS(=O)(=O)c4cccc5ncccc45)CC3)c2)CC1 [Example I-73, 1-{2-methoxy-5-[1-(methoxymethyl)cyclopropyl]phenyl}-N-(quinoline-5-sulfonyl)cyclopropane-1-carboxamide]
EC50 [1]: < 3 µM
Maximum % activity (with co-corrector) (with co-corrector): +++ (≥350)
EC50 [2]: < 3 µM
Emax (without co-corrector): > 150%

Cc1ccccc1S(=O)(=O)NC(=O)C1(c2cccc(Cl)c2)CCCC1 [Example III-83, 1-(3-chlorophenyl)-N-(2-methylbenzene-1-sulfonyl)cyclopentane-1-carboxamide]
EC50 [1]: > 10 µM
Maximum % activity (with co-corrector) (with co-corrector): ++ (≥150 and <350)
EC50 [2]: > 10 µM
Emax (without co-corrector): < 50%

Cc1cnc(C2(C(=O)NS(=O)(=O)c3cccc4[nH]ccc34)CC2)c(C2CC2)c1 [GII-39, 1-(3-cyclopropyl-5-methylpyridin-2-yl)-N-(1H-indole-4-sulfonyl)cyclopropane-1-carboxamide]
Maximum % activity (with co-corrector) [3]: ++ (≥150 and <350)
EC50 [4]: 3 to 10 µM
Emax [5]: 50 to 150%
EC50 [6]: 3 to 10 µM

COc1ccc(C2CC2)c(C)c1C1(C(=O)NS(=O)(=O)c2cccc3[nH]ncc23)CC1 [II-78]
EC50 [1]: < 3 µM
Maximum % activity (with co-corrector) (with co-corrector): +++ (≥350)
EC50 [2]: < 3 µM
Emax (without co-corrector): > 150%

COC(=O)c1ccc(Cl)cc1S(=O)(=O)NC(=O)C1(c2ccc(Cl)cc2Cl)CC1 [Example III-66, methyl 4-chloro-2-{[l-(2,4-dichlorophenyl)cyclopropane-1-carbonyl]sulfamoyl}benzoate]
EC50 [1]: > 10 µM
Maximum % activity (with co-corrector) (with co-corrector): ++ (≥150 and <350)
EC50 [2]: 3 to 10 µM
Emax (without co-corrector): < 50%

COc1cc(F)c(C(C)C)cc1C1(C(=O)NS(=O)(=O)c2cccc3ncccc23)CC1 [Example I-36, 1-[4-fluoro-2-methoxy-5-(propan-2-yl)phenyl]-N-(quinoline-5-sulfonyl)cyclopropane-1-carboxamide]
EC50 [1]: < 3 µM
Maximum % activity (with co-corrector) (with co-corrector): +++ (≥350)
EC50 [2]: < 3 µM
Emax (without co-corrector): > 150%

COc1ccc(C2CCC2)cc1C1(C(=O)NS(=O)(=O)c2cccc3cnn(C)c23)CCC1 [Example I-25, 1-(5-cyclobutyl-2-methoxyphenyl)-N-(1-methyl-1H-indazole-7-sulfonyl)cyclobutane-1-carboxamide]
EC50 [1]: < 3 µM
Maximum % activity (with co-corrector) (with co-corrector): +++ (≥350)
EC50 [2]: < 3 µM
Emax (without co-corrector): > 150%

CCCS(=O)(=O)NC(=O)C1(c2cccc(C)c2)CCOCC1 [Example III-120, 4-(3-methylphenyl)-N-(propane-1-sulfonyl)oxane-4-carboxamide]
EC50 [1]: > 10 µM
Maximum % activity (with co-corrector) (with co-corrector): + (<150)
EC50 [2]: > 10 µM
Emax (without co-corrector): < 50%

O=C(NS(=O)(=O)c1cccc(OC(F)(F)F)c1)C1(c2ccc(Cl)cc2Cl)CC1 [Example III-64, 1-(2,4-dichlorophenyl)-N-[3-(trifluoromethoxy)benzene-1-sulfonyl]cyclopropane-1-carboxamide]
EC50 [1]: > 10 µM
Maximum % activity (with co-corrector) (with co-corrector): + (<150)
EC50 [2]: > 10 µM
Emax (without co-corrector): < 50%

COc1cccc(C(C)C)c1C1(C(=O)NS(=O)(=O)c2cccc3ncccc23)CC1 [Example I-50, 1-[2-methoxy-6-(propan-2-yl)phenyl]-N-(quinoline-5-sulfonyl)cyclopropane-1-carboxamide]
EC50 [1]: < 3 µM
Maximum % activity (with co-corrector) (with co-corrector): +++ (≥350)
EC50 [2]: < 3 µM
Emax (without co-corrector): > 150%

COc1cc(C2(C(=O)NS(=O)(=O)c3cccc4ncccc34)CC2)c(OC(C)C)cn1 [Example GI-16, 1-{2-methoxy-5-[(propan-2-yl)oxy]pyridin-4-yl}-N-(quinoline-5-sulfonyl)cyclopropane-1-carboxamide]
EC50 [1]: 3 to 10 µM
Maximum % activity (with co-corrector) (with co-corrector): +++ (≥350)
EC50 [2]: < 3 µM
Emax (without co-corrector): > 150%

COCC(C)(C)c1ccc(OC)c(C2(C(=O)NS(=O)(=O)c3cccc4nc(C)ccc34)CC2)c1 [II-113]
EC50 [1]: < 3 µM
Maximum % activity (with co-corrector) (with co-corrector): +++ (≥350)
EC50 [2]: < 3 µM
Emax (without co-corrector): > 150%

Cc1ccc2c(S(=O)(=O)NC(=O)C3(c4cc(C5CC5)cnc4N4CCOCC4)CC3)cccc2n1 [GIII-20]
EC50 (with co-corrector) [3]: ++^a
Maximum % activity (with co-corrector) [3]: ++ (≥150 and <350)
EC50 (without co-corrector) [5]: ++^a
Emax [5]: 50 to 150%

COc1cnc(OCC(C)C)c(C2(C(=O)NS(=O)(=O)c3cccc4ncccc34)CC2)c1 [Example GI-77, 1-[5-methoxy-2-(2-methylpropoxy)pyridin-3-yl]-N-(quinoline-5-sulfonyl)cyclopropane-1-carboxamide]
Maximum % activity (with co-corrector) [3]: +++ (≥350)
EC50 [4]: < 3 µM
Emax [5]: > 150%
EC50 [6]: < 3 µM

O=C(NS(=O)(=O)C1CCS(=O)(=O)C1)C1(c2ccc(Cl)cc2Cl)CC1 (centres unmarked) [Example III-36, 1-(2,4-dichlorophenyl)-N-(1,1-dioxo-1λ^6-thiolane-3-sulfonyl)cyclopropane-1-carboxamide]
EC50 [1]: > 10 µM
Maximum % activity (with co-corrector) (with co-corrector): + (<150)
EC50 [2]: > 10 µM
Emax (without co-corrector): < 50%

COc1ncc(C2CCC2)c(C)c1C1(C(=O)NS(=O)(=O)c2cccc3ccc(C)nc23)CC1 [II-44]
EC50 [1]: < 3 µM
Maximum % activity (with co-corrector) (with co-corrector): +++ (≥350)
EC50 [2]: < 3 µM
Emax (without co-corrector): > 150%

COc1cccc(C)c1C1(C(=O)NS(=O)(=O)c2cccc3ncccc23)CC1 [II-35]
EC50 [1]: 3 to 10 µM
Maximum % activity (with co-corrector) (with co-corrector): +++ (≥350)
EC50 [2]: < 3 µM
Emax (without co-corrector): > 150%

Cc1noc(C)c1S(=O)(=O)NC(=O)C1(c2ccc(Cl)cc2Cl)CC1 [Example III-12, 1-(2,4-dichlorophcnyl)-N-(3,5-dimethyl-1,2-oxazole-4-sulfonyl)cyclopropane-1-carboxamide]
EC50 [1]: > 10 µM
Maximum % activity (with co-corrector) (with co-corrector): ++ (≥150 and <350)
EC50 [2]: 3 to 10 µM
Emax (without co-corrector): < 50%

CCOc1ccc(C(C)(C)OC)cc1C1(C(=O)NS(=O)(=O)c2cccc3nc(C)ccc23)CC1 [Example I-104, 1-[2-ethoxy-5-(2-methoxypropan-2-yl)phenyl]-N-(2-methylquinoline-5-sulfonyl)cyclopropane-1-carboxamide]
EC50 [1]: < 3 µM
Maximum % activity (with co-corrector) (with co-corrector): +++ (≥350)
EC50 [2]: < 3 µM
Emax (without co-corrector): > 150%

Cc1ccc(O[C@H]2CCOC2)c(C2(C(=O)NS(=O)(=O)c3cccc4ncccc34)CC2)c1 [II-117]
EC50 [1]: 3 to 10 µM
Maximum % activity (with co-corrector) (with co-corrector): +++ (≥350)
EC50 [2]: < 3 µM
Emax (without co-corrector): > 150%

COc1cc(C2CCC2)cc(OC)c1C1(C(=O)NS(=O)(=O)c2cccc3cnn(C)c23)CC1 [II-67]
EC50 [1]: < 3 µM
Maximum % activity (with co-corrector) (with co-corrector): +++ (≥350)
EC50 [2]: < 3 µM
Emax (without co-corrector): > 150%

Cc1ccc2c(S(=O)(=O)NC(=O)C3(c4cc(C5CCC5)cnc4N4CCN(C)CC4)CC3)cccc2n1 [GIII-32]
Maximum % activity (with co-corrector) [3]: + (<150)
EC50 [4]: > 10 µM
Emax [5]: < 50%
EC50 [6]: > 10 µM

COC[C@H](C)Oc1ccc(C)cc1C1(C(=O)NS(=O)(=O)c2cccc3nc(C)ccc23)CC1 [II-104]
EC50 [1]: < 3 µM
Maximum % activity (with co-corrector) (with co-corrector): +++ (≥350)
EC50 [2]: < 3 µM
Emax (without co-corrector): > 150%
